Read-outs that look alike come from different tables or passages of the source. A value given as a limit tells only on which side of the number the result lay.

The target of assay [1] is T1, E. coli CsgA (Escherichia coli, UniProt P28307).
T1 construct: made in house; host or cells: E. coli NEB 3016 slyD::kan, pET11d
Nature of the assay: In vitro ThioflavinT assay of CsgA aggregation (CsgA ThT Assay). Type of assay: biochemical. The conditions noted are these: for remaining activity at 25 µM: compound 25 μM; for remaining activity at 100 µM: compound 100 μM. Put shortly:
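Purified C-terminal His-tagged CsgA, monomerised by desalting and 30-kDa filtration, at 2-20 μM with 20-40 μM ThT in 50 mM potassium phosphate pH 7.3, 1% DMSO, compounds 3.125-200 uM; room temperature, fluorescence (ex 438/em 495 nm) read every 15 min. Background-subtracted signal expressed as percent inhibition versus vehicle at 6-6.5 or 8-9 h, or as percent control AUC.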

Assay [2] relates to CsgA gene expression (csgBAC promoter-GFP reporter) in E. coli UTI89. Put plainly: In vitro live cell fluorescent reporter assay of CsgA transcription (Reporter Assay). The conditions noted are these: Escherichia coli. The assay is classed as cell-based. Put shortly: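 Chromosomal single-copy csgBAC promoter–GFP reporter in E. coli UTI89, started at OD600 0.003 in YESCA broth with compound (0.14–100 μM, 1% DMSO), 20 h at 27 °C. GFP (ex 485/em 525 nm) background-subtracted and normalized to vehicle; IC50 and X[50] from curve fits. OD600 tracked growth effects.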
(In general: Reporter assays use an easily measured gene product as a stand-in for the process of interest.)

The mark [3] stands for this setting: read-out: CsgA ThT Assay (10 μM CsgA) % Control AUC at 1005 minutes, 25 μM (activity range), CsgA 10 μM, black plates, 1005 minutes, class symbol.
The mark [4] stands for this setting: read-out: CsgA ThT Assay (10 μM CsgA) % Control AUC at 1005 minutes, 25 μM, mean AUC as % of DMSO control, CsgA 10 μM, black plates, 1005 minutes.
Where [5] appears, read: read-out: CsgA ThT Assay (10 μM CsgA) % Control AUC at 1005 minutes, 100 μM (activity range), CsgA 10 μM, black plates, 1005 minutes, class symbol.
[6] abbreviates: read-out: CsgA ThT Assay (10 μM CsgA) % Control AUC at 1005 minutes, 100 μM, mean AUC as % of DMSO control, CsgA 10 μM, black plates, 1005 minutes.
The mark [7] stands for this setting: read-out: Reporter Assay Abs IC50 (activity range), median Abs IC50 in the CsgA reporter assay, class symbol.
[8] abbreviates: read-out: Reporter Assay Abs IC50 (μM), median Abs IC50 in the CsgA reporter assay, N/A = maximum expression reduction is <50% of control.
[9] abbreviates: read-out: CsgA ThT Assay (2 μM CsgA) % Control Bmax 25 μM, activity range, class symbol, CsgA 2 μM, white plates.
Setting [10] is: read-out: CsgA ThT Assay (2 μM CsgA) % Control Bmax 25 μM, mean Bmax as percentage of DMSO control, CsgA 2 μM, white plates.
Setting [11] is: read-out: Reporter Assay Abs IC50, activity range, class symbol.
The mark [12] stands for this setting: read-out: CsgA ThT Assay (2 μM CsgA) % Control Bmax 100 μM, activity range, class symbol, CsgA 2 μM, white plates.
[13] abbreviates: read-out: CsgA ThT Assay (2 μM CsgA) % Control Bmax 100 μM, mean Bmax as percentage of DMSO control, CsgA 2 μM, white plates.

T1 sequence (P28307 23-151): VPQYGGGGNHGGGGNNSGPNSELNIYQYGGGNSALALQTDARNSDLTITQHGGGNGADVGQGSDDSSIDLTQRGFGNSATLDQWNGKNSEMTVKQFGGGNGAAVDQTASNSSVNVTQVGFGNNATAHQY

Consider `CNC(=O)CN1CC(C(=O)O)n2c(c(-c3cccc(C(F)(F)F)c3)c(Cc3cccc4ccccc34)cc2=O)S1(=O)=O` (centres unmarked) [Compound 049, 2-(2-(methylamino)-2-oxoethyl)-8-(naphthalen-1-ylmethyl)-6-oxo-9-(3-(trifluoromethyl)phenyl)-3,4-dihydro-2H,6H-pyrido[1,2-e][1,2,5]thiadiazine-4-carboxylic acid 1,1-dioxide], for which the remaining activity at 25 µM in assay [1] (setting [3]) was above 60%; in assay [1] (setting [4]), 74%. In addition, the remaining activity at 100 µM in assay [1] (setting [5]) was 31 to 60%; in assay [1] (setting [6]), 35%. Further, the IC50 in assay [2] (setting [7]) is 4.6 to 10 µM; in assay [2] (setting [8]), 8.9 µM.
On to `Nc1c(Cc2cccc3ccccc23)c(-c2cccc(C(F)(F)F)c2)c2n(c1=O)C(C(=O)O)CN(CCO)S2(=O)=O` (centres unmarked) [Compound 098, 7-amino-2-(2-hydroxyethyl)-8-(naphthalen-1-ylmethyl)-6-oxo-9-(3-(trifluoromethyl)phenyl)-3,4-dihydro-2H,6H-pyrido[1,2-e][1,2,5]thiadiazine-4-carboxylic acid 1,1-dioxide], for which the remaining activity at 25 µM in assay [1] (setting [3]) was 31 to 60%; in assay [1] (setting [4]), 60%. Moreover, the figures for the remaining activity at 100 µM in assay [1] (setting [5]) and in assay [1] (setting [6]) were 31 to 60% and 33%, respectively. Further, the figures for the IC50 in assay [2] (setting [7]) and in assay [2] (setting [8]) were above 10 µM and 20.9 µM, respectively.
As to `O=C(O)C1CN(Cc2ccccc2)c2c(-c3cccc(C(F)(F)F)c3)c(CN3CCCc4ccccc43)c(Cl)c(=O)n21` (centres unmarked) [Compound 217, 1-benzyl-6-chloro-7-((3,4-dihydroquinolin-1 (2H)-yl)methyl)-5-oxo-8-(3-(trifluoromethyl)phenyl)-1,2,3,5-tetrahydroimidazo[1,2-a]pyridine-3-carboxylic acid], the remaining activity at 25 µM was above 60% in assay [1] (setting [9]) and 65% in assay [1] (setting [10]). For the same molecule, the IC50 in assay [2] (setting [8]) is 1.1 µM; in assay [2] (setting [11]) it was below 1.3 µM.
Turning to `CCc1c(Cc2cccc3ccccc23)c(-c2cccc(C(F)(F)F)c2)c2n(c1=O)C(C(=O)O)CN([C@H]1CC[C@@H](O)CC1)S2(=O)=O` (some centres unmarked) [Compound 124, 7-ethyl-2-((1s,4s)-4-hydroxycyclohexyl)-8-(naphthalen-1-ylmethyl)-6-oxo-9-(3-(trifluoromethyl)phenyl)-3,4-dihydro-2H,6H-pyrido[1,2-e][1,2,5]thiadiazine-4-carboxylic acid 1,1-dioxide], the remaining activity at 25 µM was 31 to 60% in assay [1] (setting [3]) and 35% in assay [1] (setting [4]). Besides, the remaining activity at 100 µM is 11 to 31% in assay [1] (setting [5]) and 21% in assay [1] (setting [6]). For the same molecule, the IC50 is 1.3 to 4.5 µM in assay [2] (setting [7]) and 3.1 µM in assay [2] (setting [8]).
For `CCCN1CC(C(=O)O)n2c(c(-c3cccc(C(F)(F)F)c3)c(Cc3cccc4ccccc34)c(Br)c2=O)S1(=O)=O` (centres unmarked) [Compound 107, 7-bromo-8-(naphthalen-1-ylmethyl)-6-oxo-2-propyl-9-(3-(trifluoromethyl)phenyl)-3,4-dihydro-2H,6H-pyrido[1,2-e][1,2,5]thiadiazine-4-carboxylic acid 1,1-dioxide], the values for the remaining activity at 25 µM in assay [1] (setting [3]) and in assay [1] (setting [4]) were 31 to 60% and 36%, respectively. The values for the remaining activity at 100 µM in assay [1] (setting [5]) and in assay [1] (setting [6]) were 31 to 60% and 38%, respectively. For the same molecule, the IC50 in assay [2] (setting [7]) is 1.3 to 4.5 µM; in assay [2] (setting [8]), 3.7 µM.
With `O=C(O)C1CN(Cc2ccccc2)c2c(-c3cccc(C(F)(F)F)c3)c(Cc3ccccc3)c(Cl)c(=O)n21` (centres unmarked) [Compound 214, 1,7-dibenzyl-6-chloro-5-oxo-8-(3-(trifluoromethyl)phenyl)-1,2,3,5-tetrahydroimidazo[1,2-a]pyridine-3-carboxylic acid], the results for the remaining activity at 25 µM in assay [1] (setting [9]) and in assay [1] (setting [10]) were above 60% and 90%, respectively. Besides, the remaining activity at 100 µM is above 60% in assay [1] (setting [12]) and 84% in assay [1] (setting [13]). Besides, the IC50 is 1.8 µM in assay [2] (setting [8]) and 1.3 to 4.5 µM in assay [2] (setting [11]).
Regarding `CC(C)(C)c1cccc(Cc2c(-c3cccc(C(F)(F)F)c3)c3n(c(=O)c2Cl)C(C(=O)O)CN3Cc2ccccc2)c1` (centres unmarked) [Compound 215, 1-benzyl-7-(3-(tert-butyl)benzyl)-6-chloro-5-oxo-8-(3-(trifluoromethyl)phenyl)-1,2,3,5-tetrahydroimidazo[1,2-a]pyridine-3-carboxylic acid], the remaining activity at 25 µM in assay [1] (setting [9]) is above 60%; in assay [1] (setting [10]), 97%. Besides, the remaining activity at 100 µM in assay [1] (setting [12]) was above 60%; in assay [1] (setting [13]), 61%. Also, the 50% inhibitory concentration (IC50) in assay [2] (setting [8]) is 1.3 µM; in assay [2] (setting [11]), 1.3 to 4.5 µM.
Take `CCCN1CC(C(=O)O)n2c(c(-c3cccc(C(F)(F)F)c3)c(Cc3cccc4ccccc34)c(CC)c2=O)S1(=O)=O` (centres unmarked) [Compound 117, 7-ethyl-8-(naphthalen-1-ylmethyl)-6-oxo-2-propyl-9-(3-(trifluoromethyl)phenyl)-3,4-dihydro-2H,6H-pyrido[1,2-e][1,2,5]thiadiazine-4-carboxylic acid 1,1-dioxide]: the remaining activity at 25 µM in assay [1] (setting [3]) was 31 to 60%; in assay [1] (setting [4]) it was 32%. In addition, the remaining activity at 100 µM in assay [1] (setting [5]) was 11 to 31%; in assay [1] (setting [6]) it was 22%. Further, the results for the IC50 in assay [2] (setting [7]) and in assay [2] (setting [8]) were 4.6 to 10 µM and 5.9 µM, respectively.
Consider `NC(=O)c1c(Cc2cccc3ccccc23)c(-c2cccc(C(F)(F)F)c2)c2n(c1=O)C(C(=O)O)CN2Cc1ccccc1` (centres unmarked) [Compound 203, 1-benzyl-6-carbamoyl-7-(naphthalen-1-ylmethyl)-5-oxo-8-(3-(trifluoromethyl)phenyl)-1,2,3,5-tetrahydroimidazo[1,2-a]pyridine-3-carboxylic acid], for which the values for the remaining activity at 25 µM in assay [1] (setting [9]) and in assay [1] (setting [10]) were above 60% and 62%, respectively. For the same molecule, the values for the remaining activity at 100 µM in assay [1] (setting [12]) and in assay [1] (setting [13]) were above 60% and 64%, respectively. For the same molecule, the IC50 in assay [2] (setting [8]) is 1.1 µM; in assay [2] (setting [11]) it was below 1.3 µM.
With `C/C=C/c1c(Cc2cccc3ccccc23)c(-c2cccc(C(F)(F)F)c2)c2n(c1=O)C(C(=O)O)CN(C)S2(=O)=O` (centres unmarked) [Compound 088, (E)-2-methyl-8-(naphthalen-1-ylmethyl)-6-oxo-7-(prop-1-en-1-yl)-9-(3-(trifluoromethyl)phenyl)-3,4-dihydro-2H,6H-pyrido[1,2-e][1,2,5]thiadiazine-4-carboxylic acid 1,1-dioxide], the remaining activity at 25 µM was 31 to 60% in assay [1] (setting [3]) and 36% in assay [1] (setting [4]). The remaining activity at 100 µM in assay [1] (setting [5]) is 11 to 31%; in assay [1] (setting [6]), 26%. The half-maximal inhibitory concentration (IC50) is 4.6 to 10 µM in assay [2] (setting [7]) and 5.2 µM in assay [2] (setting [8]).
For `CCN1CC(C(=O)O)n2c(c(-c3cccc(C(F)(F)F)c3)c(Cc3cccc4ccccc34)c(N)c2=O)S1(=O)=O` (centres unmarked) [Compound 092, 7-amino-2-ethyl-8-(naphthalen-1-ylmethyl)-6-oxo-9-(3-(trifluoromethyl)phenyl)-3,4-dihydro-2H,6H-pyrido[1,2-e][1,2,5]thiadiazine-4-carboxylic acid 1,1-dioxide], the results for the remaining activity at 25 µM in assay [1] (setting [3]) and in assay [1] (setting [4]) were above 60% and 64%, respectively. Moreover, the results for the remaining activity at 100 µM in assay [1] (setting [5]) and in assay [1] (setting [6]) were 31 to 60% and 52%, respectively. For the same molecule, the concentration for half-maximal inhibition (IC50) was above 10 µM in assay [2] (setting [7]) and 18.8 µM in assay [2] (setting [8]).
For `Cn1c(=O)c2c(ncn2CCCCCCN2CC(C(=O)O)n3c(c(-c4cccc(C(F)(F)F)c4)c(Cc4cccc5ccccc45)cc3=O)S2(=O)=O)n(C)c1=O` (centres unmarked) [Compound 035, 2-(6-(1,3-dimethyl-2,6-dioxo-1,2,3,6-tetrahydro-7H-purin-7-yl)hexyl)-8-(naphthalen-1-ylmethyl)-6-oxo-9-(3-(trifluoromethyl)phenyl)-3,4-dihydro-2H,6H-pyrido[1,2-e][1,2,5]thiadiazine-4-carboxylic acid 1,1-dioxide], the remaining activity at 25 µM in assay [1] (setting [3]) was above 60%; in assay [1] (setting [4]) it was 65%. In addition, the IC50 in assay [2] (setting [7]) is 1.3 to 4.5 µM; in assay [2] (setting [8]), 1.5 µM.

As a reminder, the IC50 is the concentration that inhibits the measured activity by half.
